Measurements published in US20240317721A1, “PYRAZOLYL DERIVATIVES AS INHIBITORS OF THE KRAS MUTANT PROTEIN” (NOVARTIS AG, priority 2021, published 2024).

Molecular target: KRasG12C (M1-K169, biotinylated on the N-terminus) (Homo sapiens (Human), UniProt P01116, G12C)
Test: Covalent competition assay: scintillation proximity assay (SPA) quantifying covalent modification of KRASG12C
Type: binding
Settings: competition with radiolabeled covalent probe (Compound B/Compound A), 2 hours incubation, 10 nM KRasG12C
In short: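 Test compounds compete with a radiolabeled covalent probe for modification of N-terminally biotinylated KRasG12C(M1-K169):GDP, final 10 nM protein, 25 nM radio-ligand, 475 nM unlabelled ligand, 2 h with agitation in 20 mM Tris-HCl pH 7.5, 150 mM NaCl, 0.1 mM MgCl2, 0.01% Tween-20.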

Structure (SMILES) | IC50 [nM]
C=CC(=O)N1C[C@]2(C[C@H](n3nc(N4CCN(C[C@@H]5COCCO5)C[C@]4(C)CC)c(-c4c(Cl)c(C)cc5[nH]ncc45)c3C)C2)[C@H]1C (single isomer, unassigned) [Example 200a] | > 5000
C=CC(=O)N1C[C@]2(C[C@H](n3nc(N4CCN(C[C@@H]5COCCO5)C[C@]4(C)CC)c(-c4c(Cl)c(C)cc5[nH]ncc45)c3C)C2)[C@H]1C (single isomer, unassigned) [Example 200b] | 23
C=CC(=O)N1C[C@]2(C[C@H](n3nc(N4CC[C@@H](CN5CCN(C6COC6)CC5)CC4(C)C)c(-c4c(Cl)c(Cl)cc5[nH]ncc45)c3C)C2)[C@H]1C (single isomer, unassigned) [Example 201a] | 4300
C=CC(=O)N1C[C@]2(C[C@H](n3nc(N4CC[C@@H](CN5CCN(C6COC6)CC5)CC4(C)C)c(-c4c(Cl)c(Cl)cc5[nH]ncc45)c3C)C2)[C@H]1C (single isomer, unassigned) [Example 201b] | 17
C=CC(=O)N1CC2(CC(n3nc(N4CCC5(CN(C)CCO5)CC4(C)C)c(-c4c(Cl)c(C)cc5[nH]ncc45)c3C)C2)C1 (single isomer, unassigned) [Example 207a, 1-(6-(4-(5-chloro-6-methyl-1H-indazol-4-yl)-5-methyl-3-(4,8,8-trimethyl-1-oxa-4,9-diazaspiro[5.5]undecan-9-yl)-1H-pyrazol-1-yl)-2-azaspiro[3.3]heptan-2-yl)prop-2-en-1-one] | > 5000
C=CC(=O)N1CC2(CC(n3nc(N4CCC5(CN(C)CCO5)CC4(C)C)c(-c4c(Cl)c(C)cc5[nH]ncc45)c3C)C2)C1 (single isomer, unassigned) [Example 207b, 1-(6-(4-(5-chloro-6-methyl-1H-indazol-4-yl)-5-methyl-3-(4,8,8-trimethyl-1-oxa-4,9-diazaspiro[5.5]undecan-9-yl)-1H-pyrazol-1-yl)-2-azaspiro[3.3]heptan-2-yl)prop-2-en-1-one] | 20
C=CC(=O)N1CC2(CC(n3nc(N4CCC5(CN(C)CCO5)CC4(C)C)c(-c4c(Cl)c(C)cc5[nH]ncc45)c3C)C2)C1 (single isomer, unassigned) [Example 208a, 1-(6-(4-(5-chloro-6-methyl-1H-indazol-4-yl)-5-methyl-3-(4,8,8-trimethyl-1-oxa-4,9-diazaspiro[5.5]undecan-9-yl)-1H-pyrazol-1-yl)-2-azaspiro[3.3]heptan-2-yl)prop-2-en-1-one] | 64
C=CC(=O)N1CC2(CC(n3nc(N4CCC5(CN(C)CCO5)CC4(C)C)c(-c4c(Cl)c(C)cc5[nH]ncc45)c3C)C2)C1 (single isomer, unassigned) [Example 208b, 1-(6-(4-(5-chloro-6-methyl-1H-indazol-4-yl)-5-methyl-3-(4,8,8-trimethyl-1-oxa-4,9-diazaspiro[5.5]undecan-9-yl)-1H-pyrazol-1-yl)-2-azaspiro[3.3]heptan-2-yl)prop-2-en-1-one] | 3800
C=CC(=O)N1CC2(CC(n3nc(N4CCC(N5CC(OC)C5)CC4(C)C)c(-c4c(Cl)c(Cl)cc5[nH]ncc45)c3C)C2)C1 (single isomer, unassigned) [Example 209a, 1-(6-(4-(5,6-dichloro-1H-indazol-4-yl)-3-(4-(3-methoxyazetidin-1-yl)-2,2-dimethylpiperidin-1-yl)-5-methyl-1H-pyrazol-1-yl)-2-azaspiro[3.3]heptan-2-yl)prop-2-en-1-one] | 1100
C=CC(=O)N1CC2(CC(n3nc(N4CCC(N5CC(OC)C5)CC4(C)C)c(-c4c(Cl)c(Cl)cc5[nH]ncc45)c3C)C2)C1 (single isomer, unassigned) [Example 209b, 1-(6-(4-(5,6-dichloro-1H-indazol-4-yl)-3-(4-(3-methoxyazetidin-1-yl)-2,2-dimethylpiperidin-1-yl)-5-methyl-1H-pyrazol-1-yl)-2-azaspiro[3.3]heptan-2-yl)prop-2-en-1-one] | 12
C=CC(=O)N1CC2(CC(n3nc(N4CCC(C(=O)N5CCN(C)CC5)CC4(C)C)c(-c4c(Cl)c(Cl)cc5[nH]ncc45)c3C)C2)C1 (single isomer, unassigned) [Example 211a, 1-(6-(4-(5,6-dichloro-1H-indazol-4-yl)-3-(2,2-dimethyl-4-(4-methylpiperazine-1-carbonyl)piperidin-1-yl)-5-methyl-1H-pyrazol-1-yl)-2-azaspiro[3.3]heptan-2-yl)prop-2-en-1-one] | 1600
C=CC(=O)N1CC2(CC(n3nc(N4CCC(C(=O)N5CCN(C)CC5)CC4(C)C)c(-c4c(Cl)c(Cl)cc5[nH]ncc45)c3C)C2)C1 (single isomer, unassigned) [Example 211b, 1-(6-(4-(5,6-dichloro-1H-indazol-4-yl)-3-(2,2-dimethyl-4-(4-methylpiperazine-1-carbonyl)piperidin-1-yl)-5-methyl-1H-pyrazol-1-yl)-2-azaspiro[3.3]heptan-2-yl)prop-2-en-1-one] | 8
C=CC(=O)N1CC2(CC(n3nc(N4CCC(N5C[C@H]6C[C@@H]5CN6S(C)(=O)=O)CC4(C)C)c(-c4c(Cl)c(Cl)cc5[nH]ncc45)c3C)C2)C1 (single isomer, unassigned) [Example 212a] | 358
C=CC(=O)N1CC2(CC(n3nc(N4CCC(N5C[C@H]6C[C@@H]5CN6S(C)(=O)=O)CC4(C)C)c(-c4c(Cl)c(Cl)cc5[nH]ncc45)c3C)C2)C1 (single isomer, unassigned) [Example 212b] | 12
C=CC(=O)N1CC2(CC(n3nc(N4CC[C@@H](CN5CCOCC5)CC4(C)C)c(-c4c(Cl)c(Cl)cc5[nH]ncc45)c3C)C2)C1 (single isomer, unassigned) [Example 213a] | 3500
C=CC(=O)N1CC2(CC(n3nc(N4CC[C@@H](CN5CCOCC5)CC4(C)C)c(-c4c(Cl)c(Cl)cc5[nH]ncc45)c3C)C2)C1 (single isomer, unassigned) [Example 213b] | 12

Next, values leading:

IC50 [nM] | Structure (SMILES)
290 | C=CC(=O)N1CC2(CC(n3nc(N4CC[C@H](CN5CCOCC5)CC4(C)C)c(-c4c(Cl)c(Cl)cc5[nH]ncc45)c3C)C2)C1 (single isomer, unassigned) [Example 214a]
679 | C=CC(=O)N1CC2(CC(n3nc(N4CC[C@H](CN5CCOCC5)CC4(C)C)c(-c4c(Cl)c(Cl)cc5[nH]ncc45)c3C)C2)C1 (single isomer, unassigned) [Example 214b]
928 | C=CC(=O)N1CC2(CC(n3nc(N4CCC(CN5C[C@@H]6C[C@H]5CO6)CC4(C)C)c(-c4c(Cl)c(Cl)cc5[nH]ncc45)c3C)C2)C1 (single isomer, unassigned) [Example 217a]
8 | C=CC(=O)N1CC2(CC(n3nc(N4CCC(CN5C[C@@H]6C[C@H]5CO6)CC4(C)C)c(-c4c(Cl)c(Cl)cc5[nH]ncc45)c3C)C2)C1 (single isomer, unassigned) [Example 217b]
81 | C=CC(=O)N1CC2(CC(n3nc(N4CCC(CN5CCOCC5)C4(C)C)c(-c4c(Cl)c(Cl)cc5[nH]ncc45)c3C)C2)C1 (single isomer, unassigned) [Example 218a, 1-(6-(4-(5,6-dichloro-1H-indazol-4-yl)-3-(2,2-dimethyl-3-(morpholinomethyl)pyrrolidin-1-yl)-5-methyl-1H-pyrazol-1-yl)-2-azaspiro[3.3]heptan-2-yl)prop-2-en-1-one]
> 5000 | C=CC(=O)N1CC2(CC(n3nc(N4CCC(CN5CCOCC5)C4(C)C)c(-c4c(Cl)c(Cl)cc5[nH]ncc45)c3C)C2)C1 (single isomer, unassigned) [Example 218b, 1-(6-(4-(5,6-dichloro-1H-indazol-4-yl)-3-(2,2-dimethyl-3-(morpholinomethyl)pyrrolidin-1-yl)-5-methyl-1H-pyrazol-1-yl)-2-azaspiro[3.3]heptan-2-yl)prop-2-en-1-one]
1600 | C=CC(=O)N1CC2(CC(n3nc(N4CCC(CN5CCOCC5)C4(C)C)c(-c4c(Cl)c(Cl)cc5[nH]ncc45)c3C)C2)C1 (single isomer, unassigned) [Example 219a, 1-(6-(4-(5,6-dichloro-1H-indazol-4-yl)-3-(2,2-dimethyl-3-(morpholinomethyl)pyrrolidin-1-yl)-5-methyl-1H-pyrazol-1-yl)-2-azaspiro[3.3]heptan-2-yl)prop-2-en-1-one]
42 | C=CC(=O)N1CC2(CC(n3nc(N4CCC(CN5CCOCC5)C4(C)C)c(-c4c(Cl)c(Cl)cc5[nH]ncc45)c3C)C2)C1 (single isomer, unassigned) [Example 219b, 1-(6-(4-(5,6-dichloro-1H-indazol-4-yl)-3-(2,2-dimethyl-3-(morpholinomethyl)pyrrolidin-1-yl)-5-methyl-1H-pyrazol-1-yl)-2-azaspiro[3.3]heptan-2-yl)prop-2-en-1-one]
> 5000 | C=CC(=O)N1CC2(CC(n3nc(N4CC=C(CN5CCOCC5)CC4(C)C)c(-c4c(Cl)c(Cl)cc5[nH]ncc45)c3C)C2)C1 (single isomer, unassigned) [Example 220a, 1-(6-(4-(5,6-dichloro-1H-indazol-4-yl)-3-(2,2-dimethyl-4-(morpholinomethyl)-3,6-dihydropyridin-1(2H)-yl)-5-methyl-1H-pyrazol-1-yl)-2-azaspiro[3.3]heptan-2-yl)prop-2-en-1-one]
36 | C=CC(=O)N1CC2(CC(n3nc(N4CC=C(CN5CCOCC5)CC4(C)C)c(-c4c(Cl)c(Cl)cc5[nH]ncc45)c3C)C2)C1 (single isomer, unassigned) [Example 220b, 1-(6-(4-(5,6-dichloro-1H-indazol-4-yl)-3-(2,2-dimethyl-4-(morpholinomethyl)-3,6-dihydropyridin-1(2H)-yl)-5-methyl-1H-pyrazol-1-yl)-2-azaspiro[3.3]heptan-2-yl)prop-2-en-1-one]
5 | C=CC(=O)N1CC2(CC(n3nc(N4CCC(CN5CCOCC5)CC4(C)COC)c(-c4c(Cl)c(Cl)cc5[nH]ncc45)c3C)C2)C1 (single isomer, unassigned) [Example 221a, 1-(6-(4-(5,6-dichloro-1H-indazol-4-yl)-3-(2-(methoxymethyl)-2-methyl-4-(morpholinomethyl)piperidin-1-yl)-5-methyl-1H-pyrazol-1-yl)-2-azaspiro[3.3]heptan-2-yl)prop-2-en-1-one]
